Test results taken from patent US20240368174A1, “Antiviral Heterocyclic Compounds” (Enanta Pharmaceuticals, Inc., priority 2023, published 2024).

Tested on: HMPV clinical isolate A2 strain TN 94-49
Test: HMPV antiviral assay, Method 2 (LLC-MK2 cells with CP-100-356, ATP-Lite)
Assay type: cell-based
Details: human metapneumovirus; hMPV A2 TN/94-49, LLC-MK2 cells with CP-100-356, Method 2
Procedure, shortened: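 LLC-MK2 rhesus kidney cells (5,000/well) infected in suspension with HMPV A2 TN 94-49 at MOI 0.16, in serum-free medium with final 2 μg/mL TPCK-trypsin and 2 μM CP-100-356. Compounds tested in duplicate from 200 nM, 2.5-fold, 10 points; 7 days at 37 °C. Cell health by ATP-Lite luminescence; EC50 by four-parameter fit.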

| SMILES | EC50 |
| --- | --- |
| COc1cc(C(=O)NC[C@@](O)(c2cc[nH]c(=O)c2)c2cc3c(c(-c4cc(Cl)c(F)cc4F)n2)OC[C@]3(C)C(N)=O)cc2cn(C3CC3)nc12 [Example 504] | > 200 nM |
| COc1cc(C(=O)NC[C@@](O)(c2ccc(=O)[nH]c2)c2cc3c(c(-c4cc(Cl)c(F)cc4F)n2)OC[C@]3(C)C(N)=O)cc2cn(C3CC3)nc12 [Example 505] | > 200 nM |
| COc1cc(C(=O)NC[C@](O)(c2cc3c(c(-c4ccnc(C)c4Cl)n2)OC[C@]3(C)C(N)=O)C2(F)CC2)cn2cc(C3(F)CC3)nc12 [Example 528] | > 200 nM |
| Cc1nccc(-c2nc([C@@](O)(CNC(=O)c3cc(Cl)c4nn(C5CC5)cc4c3)C3(F)CC3)cc3c2OC[C@]3(C)C(N)=O)c1Cl [Example 529] | > 200 nM |
| COc1cc(C(=O)NC[C@](O)(c2cc3c(c(-c4ccnc(C)c4Cl)n2)OC[C@]3(C)C(N)=O)C2(F)CC2)cc2sc(C)nc12 [Example 530] | > 200 nM |
| COc1cc(C(=O)NC[C@](O)(c2cc3c(c(-c4ccnc(C)c4Cl)n2)OC[C@]3(C)C(N)=O)C2(F)CC2)cc2oc(C3(F)CC3)nc12 [Example 532] | > 200 nM |
| COc1cc(C(=O)NC[C@](O)(c2cc3c(c(-c4ccnc(C)c4Cl)n2)OC[C@]3(C)C(N)=O)C2(F)CC2)cc2oc(C(F)F)nc12 [Example 533] | > 200 nM |
| COc1cc(C(=O)NC[C@@](O)(c2cccc(F)c2)c2cc3c(c(-c4ccnc(C)c4Cl)n2)OC[C@]3(C)C(N)=O)cc2cn(C(F)F)nc12 [Example 538] | < 200 nM |
| COc1cc(C(=O)NC[C@@](O)(c2cccc(F)c2)c2cc3c(c(-c4ccnc(C)c4Cl)n2)OC[C@]3(C)C(N)=O)cc2cn(C3(F)CC3)nc12 [Example 539] | < 200 nM |
| COc1cc(C(=O)NC[C@@](O)(c2cccc(F)c2)c2cc3c(c(-c4ccnc(C)c4Cl)n2)OC[C@]3(C)C(N)=O)cc2oc(C3CC3)nc12 [Example 540] | < 200 nM |
| COc1cc(C(=O)NC[C@@](O)(c2ccc(F)cc2)c2cc3c(c(-c4ccnc(C(F)(F)F)c4F)n2)OC[C@]3(C)C(N)=O)cc2oc(C(F)F)nc12 [Example 541] | < 200 nM |
| COc1nccc(-c2nc([C@@](O)(CNC(=O)c3cc(Cl)c4nn(C5CC5)cc4c3)C(F)(F)F)cc3c2OC[C@]3(C)C(N)=O)c1Cl [Example 544] | < 200 nM |
| COc1nccc(-c2nc([C@@](O)(CNC(=O)c3cc(OC)c4nc(C5CC5)oc4c3)C(F)(F)F)cc3c2OC[C@]3(C)C(N)=O)c1Cl [Example 545] | < 200 nM |
| COc1nccc(-c2nc([C@@](O)(CNC(=O)c3cc(OC)c4nc(C)sc4c3)C(F)(F)F)cc3c2OC[C@]3(C)C(N)=O)c1Cl [Example 546] | < 200 nM |
| COc1nccc(-c2nc([C@@](O)(CNC(=O)c3cc(OC)c4nc(C(F)F)oc4c3)C(F)(F)F)cc3c2OC[C@]3(C)C(N)=O)c1Cl [Example 547] | > 200 nM |
| C[C@]1(C(N)=O)COc2c1cc([C@@](O)(CNC(=O)c1cc(Cl)c3nn(C4CC4)cc3c1)C(F)(F)F)nc2-c1ccnc(C(F)F)c1Cl [Example 549] | < 200 nM |
| COc1cc(C(=O)NC[C@](O)(c2cc3c(c(-c4ccnc(C(F)F)c4Cl)n2)OC[C@]3(C)C(N)=O)C(F)(F)F)cc2sc(C)nc12 [Example 551] | < 200 nM |
| COc1cc(C(=O)NC[C@](O)(c2cc3c(c(-c4ccnc(C(F)F)c4Cl)n2)OC[C@]3(C)C(N)=O)C(F)(F)F)cc2oc(C(F)F)nc12 [Example 552] | < 200 nM |

| SMILES | EC50 |
| --- | --- |
| COc1nccc(-c2nc([C@@](O)(CNC(=O)c3cc(OC)c4nn(C5CC5)cc4c3)c3ccccc3)cc3c2OC[C@]3(C)C(N)=O)c1Cl [Example 553] | < 200 nM |
| COc1nccc(-c2nc([C@@](O)(CNC(=O)c3cc(OC)c4nn(C(F)F)cc4c3)c3ccccc3)cc3c2OC[C@]3(C)C(N)=O)c1Cl [Example 554] | < 200 nM |
| COc1nccc(-c2nc([C@@](O)(CNC(=O)c3cc(OC)c4nn(C5(F)CC5)cc4c3)c3ccccc3)cc3c2OC[C@]3(C)C(N)=O)c1Cl [Example 555] | < 200 nM |
| COc1nccc(-c2nc([C@@](O)(CNC(=O)c3cc(OC)c4nc(C5CC5)oc4c3)c3ccccc3)cc3c2OC[C@]3(C)C(N)=O)c1Cl [Example 556] | < 200 nM |
| COc1nccc(-c2nc([C@@](O)(CNC(=O)c3cc(OC)c4nc(C(F)F)oc4c3)c3ccccc3)cc3c2OC[C@]3(C)C(N)=O)c1Cl [Example 557] | < 200 nM |
| COc1nccc(-c2nc([C@@](O)(CNC(=O)c3cc(OC)c4nn(C(F)F)cc4c3)c3cccc(F)c3)cc3c2OC[C@]3(C)C(N)=O)c1Cl [Example 558] | < 200 nM |
| COc1nccc(-c2nc([C@@](O)(CNC(=O)c3cc(OC)c4nn(C5(F)CC5)cc4c3)c3cccc(F)c3)cc3c2OC[C@]3(C)C(N)=O)c1Cl [Example 559] | < 200 nM |
| COc1nccc(-c2nc([C@@](O)(CNC(=O)c3cc(OC)c4nc(C5CC5)oc4c3)c3cccc(F)c3)cc3c2OC[C@]3(C)C(N)=O)c1Cl [Example 560] | < 200 nM |
| COc1nccc(-c2nc([C@@](O)(CNC(=O)c3cc(OC)c4nc(C(F)F)oc4c3)c3cccc(F)c3)cc3c2OC[C@]3(C)C(N)=O)c1Cl [Example 561] | < 200 nM |
| COc1cc(C(=O)NC[C@@](O)(c2ccccc2)c2cc3c(c(-c4ccnc(C(F)F)c4Cl)n2)OC[C@]3(C)C(N)=O)cc2cn(C3CC3)nc12 [Example 562] | < 200 nM |
| COc1cc(C(=O)NC[C@@](O)(c2ccccc2)c2cc3c(c(-c4ccnc(C(F)F)c4Cl)n2)OC[C@]3(C)C(N)=O)cc2cn(C3(F)CC3)nc12 [Example 563] | < 200 nM |
| COc1cc(C(=O)NC[C@@](O)(c2ccccc2)c2cc3c(c(-c4ccnc(C(F)F)c4Cl)n2)OC[C@]3(C)C(N)=O)cc2oc(C3CC3)nc12 [Example 564] | < 200 nM |
| COc1cc(C(=O)NC[C@@](O)(c2cccc(F)c2)c2cc3c(c(-c4ccnc(C(F)F)c4Cl)n2)OC[C@]3(C)C(N)=O)cc2cn(C3CC3)nc12 [Example 565] | < 200 nM |
| COc1cc(C(=O)NC[C@@](O)(c2cccc(F)c2)c2cc3c(c(-c4ccnc(C(F)F)c4Cl)n2)OC[C@]3(C)C(N)=O)cc2cn(C3(F)CC3)nc12 [Example 566] | < 200 nM |
| COc1cc(C(=O)NC[C@@](O)(c2cccc(F)c2)c2cc3c(c(-c4ccnc(C(F)F)c4Cl)n2)OC[C@]3(C)C(N)=O)cc2oc(C3CC3)nc12 [Example 567] | < 200 nM |
| COc1cc(C(=O)NC[C@@](O)(c2cccc(F)c2)c2cc3c(c(-c4ccnc(C(F)F)c4Cl)n2)OC[C@]3(C)C(N)=O)cc2oc(C(F)F)nc12 [Example 568] | < 200 nM |
| COc1cc(C(=O)NC[C@@](O)(c2ccc(F)cc2)c2cc3c(c(-c4ccnc(C(F)F)c4Cl)n2)OC[C@]3(C)C(N)=O)cc2cn(C3CC3)nc12 [Example 569] | < 200 nM |

The next lines start with the values.

| EC50 | SMILES |
| --- | --- |
| < 200 nM | COc1cccc([C@](O)(CNC(=O)c2cc(OC)c3nn(C4CC4)cc3c2)c2cc3c(c(-c4cccc(Cl)c4Cl)n2)OC[C@]3(C)C(N)=O)n1 [Example 496] |
| < 200 nM | COc1cc([C@](O)(CNC(=O)c2cc(OC)c3nn(C4CC4)cc3c2)c2cc3c(c(-c4cccc(Cl)c4Cl)n2)OC[C@]3(C)C(N)=O)cc(OC)n1 [Example 497] |
| < 200 nM | COc1cc([C@](O)(CNC(=O)c2cc(OC)c3nn(C(F)F)cc3c2)c2cc3c(c(-c4cccc(Cl)c4Cl)n2)OC[C@]3(C)C(N)=O)cc(OC)n1 [Example 498] |
| < 200 nM | COc1cc(C(=O)NCC(O)(c2cc(F)nc(F)c2)c2cc3c(c(-c4cccc(Cl)c4Cl)n2)OC[C@]3(C)C(N)=O)cc2cn(C3CC3)nc12 (stereo partly shown) [Example 499] |
| < 200 nM | COc1cc(C(=O)NCC(O)(c2cc(F)nc(F)c2)c2cc3c(c(-c4cccc(Cl)c4Cl)n2)OC[C@]3(C)C(N)=O)cc2cn(C(F)F)nc12 (stereo partly shown) [Example 500] |
| < 200 nM | COc1cc(C(=O)NC[C@@](O)(c2ccnc(C#N)c2)c2cc3c(c(-c4cc(Cl)c(F)cc4F)n2)OC[C@]3(C)C(N)=O)cc2cn(C3CC3)nc12 [Example 501] |
| < 200 nM | COc1cc([C@](O)(CNC(=O)c2cc(OC)c3nn(C4CC4)cc3c2)c2cc3c(c(-c4cc(Cl)c(F)cc4F)n2)OC[C@]3(C)C(N)=O)cc(F)n1 [Example 503] |
| < 200 nM | COc1cc(C(=O)NC[C@](O)(c2cc3c(c(-c4cc(Cl)c(F)cc4F)n2)OC[C@]3(C)C(N)=O)C2(C)CC2)cc2cn(C3CC3)nc12 [Example 516] |
| < 200 nM | COc1cc(C(=O)NC[C@](O)(c2cc3c(c(-c4ccnc(Cl)c4Cl)n2)OC[C@]3(C)C(N)=O)C2(F)CC2)cc2cn(C3(F)CC3)nc12 [Example 519] |
| < 200 nM | COc1cc(C(=O)NC[C@](O)(c2cc3c(c(-c4ccnc(Cl)c4Cl)n2)OC[C@]3(C)C(N)=O)C2(F)CC2)cc2oc(C3CC3)nc12 [Example 520] |
| < 200 nM | COc1cc(C(=O)NC[C@](O)(c2cc3c(c(-c4ccnc(Cl)c4Cl)n2)OC[C@]3(C)C(N)=O)C2(F)CC2)cc2cn(C(F)F)nc12 [Example 521] |
| < 200 nM | COc1cc(C(=O)NC[C@](O)(c2cc3c(c(-c4ccnc(Cl)c4Cl)n2)OC[C@]3(C)C(N)=O)C2(F)CC2)cn2cc(C3(F)CC3)nc12 [Example 522] |
| < 200 nM | C[C@]1(C(N)=O)COc2c1cc([C@@](O)(CNC(=O)c1cc(Cl)c3nn(C4CC4)cc3c1)C1(F)CC1)nc2-c1ccnc(Cl)c1Cl [Example 523] |
| < 200 nM | COc1cc(C(=O)NC[C@](O)(c2cc3c(c(-c4ccnc(Cl)c4Cl)n2)OC[C@]3(C)C(N)=O)C2(F)CC2)cc2sc(C)nc12 [Example 524] |
| < 200 nM | COc1cc(C(=O)NC[C@](O)(c2cc3c(c(-c4ccnc(C)c4Cl)n2)OC[C@]3(C)C(N)=O)C2(F)CC2)cc2cn(C3(F)CC3)nc12 [Example 525] |
| < 200 nM | C[C@]1(C(N)=O)COc2c1cc([C@@](O)(CNC(=O)c1cc(Cl)c3nn(C4CC4)cc3c1)C(F)(F)F)nc2-c1ccnc(C(F)(F)F)c1Cl [Example 535] |
| < 200 nM | COc1cc(C(=O)NC[C@](O)(c2cc3c(c(-c4ccnc(C(F)(F)F)c4Cl)n2)OC[C@]3(C)C(N)=O)C(F)(F)F)cc2sc(C)nc12 [Example 537] |
